How the values were obtained:
[1] = A. J. GOWER et al., Eur. J. Pharmacol., 222, (1992), 193-203; cited from earlier work
BCS classification = assay type: physicochemical
Procedure: Considering Levetiracetam, Brivaracetam and Seletracetam are classified as BCS I, in order to achieve a prolonged therapeutic plasmatic drug level the resulting in vitro dissolution (USP<711> apparatus n°2) in a buffered aqueous media has to show a drug release of no more than 40% after 1 hour of dissolution, of 25% -80% after 4 hours of dissolution and of no less than 80% after 16 hours of dissolution. Preferably, a profile of no more than 35% after 1 hour of dissolution, of 35% -75% after 4 hours of dissolution and of no less than 80% after 16 hours of dissolution. More preferably a profile of no more than 30% after 1 hour of dissolution, of 45% -70% after 4 hours of dissolution and of no less than 80% after 16 hours of dissolution.

[2] = system: adult patients with refractory partial onset seizures; assay: clinical studies, adjunctive treatment of partial onset seizures (epilepsy); assay type: in vivo, human
Procedure: (§1) Brivaracetam is effective in the treatment of epilepsy. A clinical trial evaluated the efficacy and safety of Brivaracetam (5, 20 and 50 mg per day) in the adjunctive treatment of adult patients with refractory partial onset seizures, with or without secondary generalization. Brivaracetam is also effective in the treatment of patients with post-herpetic neuralgia.
Seletracetam is effective in the treatment of epilepsy. Two studies were conducted with Seletracetam in epilepsy evaluating the efficacy and safety of Seletracetam in the adjunctive treatment of partial onset seizures in highly refractory adult patients currently receiving up to three concomitant anti-epileptic drugs.

[3] = system: patients with post-herpetic neuralgia; assay: treatment of patients with post-herpetic neuralgia; assay type: in vivo, human
Procedure: as §1

rat hippocampal slices [4] = assay: epileptiform responses in hippocampal slices induced by high-K+/low-Ca2+ fluid (HKLCF); assay type: cell-based, Sprague-Dawley rats; parameters: rate of spontaneous field bursting: dose or concentration left out as unconfirmed; details: for evoked epileptiform responses (PS1 amplitude, repetitive PSs) in CA3 area: HKLCF perfusion, fimbrial stimulation
Procedure: The effect of brivaracetam on epileptiform responses induced by high-K+/low-Ca2+ concentrations or by bicuculline was examined in transverse hippocampal slices prepared from Sprague-Dawley rats according to previously reported standard procedures. The epileptiform responses were induced by passing from a normal perfusion of artificial cerebrospinal fluid (ACSF) (K+3 mM; Ca2+2.4 mM) to either high-K+/low-Ca2+ fluid (HKLCF) (K+7.5 mM; Ca2+0.5 mM) or to […] bicuculline methiodide (BMI)-containing ACSF.
Extracellular field potentials (FPs) were recorded in the CA3 area of the slices with 2 M NaCl-filled glass microelectrodes. The evoked FPs were recorded at 10-min intervals in response to fimbrial stimulation with constant current rectangular pulses that elicit a single population spike (PS) of 50-75% of the maximal amplitude when the slice is in ACSF. In the HKLCF model, 2 min of spontaneous activity were also recorded, in the middle of each 10-min interval between the recordings of evoked responses.
Either brivaracetam or levetiracetam was added to the bathing fluid of the slices 20 min before shifting from ACSF to either HKLCF or […] BMI-containing ACSF, and was kept in the perfusion fluid throughout the experiment.

amygdala-kindled rats = assay: fully amygdala-kindled rats; assay type: in vivo, rat; details: for dose significantly reducing the after-discharge duration: brivaracetam at highest dose tested, levetiracetam inactive up to stated dose
[5] = system: genetically sound-sensitive male mice; assay: audiogenic seizures in mice; assay type: in vivo; details: audiogenic seizure-susceptible mice; i.p.
Procedure: Audiogenic seizures in mice: Genetically sound-sensitive male mice (16-28 g; n=10 per group), responding with wild running, clonic and tonic convulsions to an acoustic stimulation, were used. Audiogenic seizures were induced by an acoustic stimulus (90 dB, 10-20 kHz) applied for 30 s. The mice were pretreated with either saline, brivaracetam (i.p., 30 min) or levetiracetam (i.p., 60 min), and the proportion of mice protected against clonic convulsions was used as the end point to assess anticonvulsant activity.

mice [6] = assay: chemically induced seizures in mice (pentylenetetrazol); assay type: in vivo; details: i.p. 30 min before seizure induction; higher ED50 values than audiogenic
Procedure: The dose was selected based on dose-effect curves in saline-treated animals as the convulsive dose inducing clonic convulsions of all four extremities in 97% of the animals. Immediately after administration of the chemoconvulsant, the mice were placed individually in small plastic cages (25 13 8 cm) and observed for the presence of clonic convulsions in all four extremities, for 60 min. The occurrence of tonic convulsions (hindlimb extension) and mortality was also recorded during this interval. The proportion of mice protected against clonic convulsions was calculated and used as the end point for anticonvulsant activity.

mice [7] = assay: maximal electroshock in mice; assay type: in vivo; details: i.p. 30 min before seizure induction; higher ED50 values than audiogenic
GAERS rats = assay: spontaneous SWDs in GAERS rats; assay type: in vivo, rat
mice [8] = assay: corneal kindling of mice; assay type: in vivo
water solubility = assay type: physicochemical
rat hippocampal slices [9] = details: introductory statement; cited from earlier work
rat hippocampal slices [10] = details: introductory statement; cited from earlier work; remark: listed apart in the source

For `CC[C@H](C(N)=O)N1CCCC1=O` [(R)-(+)-α-ethyl-2-oxo-1-pyrrolidine-acetamide], the “activity in the treatment of epilepsy” value [1] is given as “completely devoid of activity”.

With `CCC[C@@H]1CC(=O)N([C@@H](CC)C(N)=O)C1` [Brivaracetam, (2S)-2-[(4R)-2-oxo-4-propyl-pyrrolidin-1-yl] butanamide] the BCS class (BCS classification) was “BCS I”, the “efficacy in the treatment of epilepsy” value [2] was “effective” and the “efficacy in post-herpetic neuralgia” value [3] was “effective”. The “rate of spontaneous field bursting” value (rat hippocampal slices [4]; HKLCF) was “reduced the rate”, the “evoked epileptiform responses (PS1 amplitude, repetitive PSs) in CA3 area” value (rat hippocampal slices [4]) was “reduced these epileptiform responses” and the “dose from which significant suppression in motor-seizure severity is induced” value (amygdala-kindled rats) was 21.2 mg/kg. For the same compound, the “dose significantly reducing the after-discharge duration” value (amygdala-kindled rats) was 212.3 mg/kg, the “protection against clonic convulsions” value [5] was “protected” and the “protection against clonic convulsions induced by pentylenetetrazol” value (mice [6]) was “protected”. For the same compound, the “protection against tonic hindlimb extension induced by a maximal electroshock” value (mice [7]) was “protected”, the “dose from which spontaneous SWDs are significantly suppressed” value (GAERS rats) was 2.1 mg/kg and the “inhibition of spontaneous SWDs” value (GAERS rats; highest dose tested (67.9 mg kg−1)) was “complete inhibition”. For the same compound, the “incidence of generalized motor seizures after termination of treatment” value (mice [8]; continued corneal stimulations, group previously treated with the highest dose) was “persistent reduction” and the “incidence of generalized motor seizures” value (mice [8]; pretreatment during corneal kindling, levetiracetam at higher doses) was “significant reduction”.

In the case of `CC[C@@H](C(N)=O)N1CCCC1=O` [Levetiracetam, (S)-(−)α-ethyl-2-oxo-1-pyrrolidineacetamide], the solubility (water solubility) is reported as > 500 mg/mL, the BCS class (BCS classification) is reported as “BCS I” and the “evoked epileptiform responses (PS1 amplitude, repetitive PSs) in CA3 area” value (rat hippocampal slices [4]) is reported as “reduced these epileptiform responses”. For the same compound, the “dose from which significant suppression in motor-seizure severity is induced” value (amygdala-kindled rats) was 170 mg/kg, the “dose significantly reducing the after-discharge duration” value (amygdala-kindled rats) was > 1700 mg/kg and the “protection against clonic convulsions” value [5] was “protected”. The “dose from which spontaneous SWDs are significantly suppressed” value (GAERS rats) was 5.4 mg/kg, the “epileptiform responses induced by high-K+/low-Ca2+ concentrations” value (rat hippocampal slices [9]) was “reduces epileptiform responses” and the “epileptiform responses induced by bicuculline” value (rat hippocampal slices [10]) was “reduces epileptiform responses”.

In the case of `CC[C@@H](C(N)=O)N1C[C@H](C=C(F)F)CC1=O` [Seletracetam, (2S)-2-[(4S)-4-(2,2-difluorovinyl)-2-oxo-pyrrolidin-1-yl]butanamide], the BCS class (BCS classification) is reported as “BCS I” and the “efficacy in the treatment of epilepsy” value [2] is reported as “effective”.
